Legend:
[1] = tested on: ABA A17_S; assay: Colistin disk diffusion, guanidine hydrochloride medium, A17_S; type: cell-based, Acinetobacter baumannii; details: 30% agar
Method: (§1) A concentration of agar particles (BD Diagnostic, Sparks, Md., USA) in Mueller-Hinton broth medium (BD Diagnostic) was adjusted to 5.1 g/L, which is 30% of 17 g/L, and guanidine hydrochloride was added to a concentration of 500 μg/ml, 50 μg/ml, or 5 μg/ml. Then, solidification was performed. On a surface of each medium thus prepared was evenly inoculated each of colistin-susceptible (S) or -resistant (R) Acinetobacter baumannii (ABA) strain, colistin-susceptible (S) or -resistant (R) Klebsiella pnemoniae (KPN) strain, and colistin-susceptible (S) or -resistant (R) Pseudomonas aeruginosa (PAE) strain, and a colistin disk was placed thereon. Then, pictures of a growth inhibition zone, which had been formed clear, around the disk were taken for each strain, and the results are illustrated in FIGS. 8 to 10.

[2] = tested on: PAE P1477_S; assay: Colistin disk diffusion, guanidine hydrochloride medium, P1477_S; type: cell-based, Pseudomonas aeruginosa; details: 30% agar
Method: as §1

[3] = tested on: Escherichia coli ATCC25922 strain; assay: Colistin disk diffusion on modified Mueller-Hinton agar, ECO; type: cell-based; details: protamine 100 μg/ml
Method: To each MHA thus modified was added protamine (Sigma-Aldrich, St Louis, Mo., USA) at a concentration of 100 μg/ml, and solidification was performed. Then, on a surface of the medium was evenly inoculated each of colistin-susceptible (S) or -resistant (R) Acinetobacter calcoaceticus-baumannii complex (ACB) strain, Pseudomonas aeruginosa ATCC27853 strain, Escherichia coli ATCC25922 strain, and mcr-1-harboring Enterobacter aerogenes strain, and a colistin disk was placed thereon. Subsequently, a diameter of a growth inhibition zone (colistin inhibition zone), which had been formed clear by diffusion of colistin to the agar around the colistin disk, was measured.

[4] = tested on: KPN K4056_R; assay: Colistin disk diffusion, guanidine hydrochloride medium, K4056_R; type: cell-based, Klebsiella pnemoniae; details: 30% agar
Method: as §1

[5] = tested on: KPN K3007_S; assay: Colistin disk diffusion, guanidine hydrochloride medium, K3007_S; type: cell-based, Klebsiella pnemoniae; details: 30% agar
Method: as §1

[6] = tested on: colistin-resistant strains; assay: Colistin disk diffusion, colistin-resistant strains as a group; type: cell-based
Method: As in Example 1, a concentration of agar particles (BD Diagnostic, Sparks, Md., USA) in Mueller-Hinton broth medium (BD Diagnostic) was adjusted to 5.1 g/L, which is 30% of 17 g/L, and protamine (Sigma-Aldrich, St Louis, Mo., USA) was added thereto at a concentration of 150 μg/ml or 100 μg/ml. Then, solidification was performed. To compare effects depending on concentrations of agar and protamine, Muller-Hinton agar medium (BD Diagnostic) containing agar at a concentration of 17 g/L and medium obtained by adding, to the Muller-Hinton agar medium, protamine at a concentration of 100 μg/ml were prepared as controls. […] Then, it was determined whether each strain was grown, and a diameter of a growth inhibition zone, which had been formed clear around the disk, was measured. […]
On a surface of each medium thus prepared was evenly inoculated each of colistin-susceptible (S) or -resistant (R) Acinetobacter calcoaceticus-baumannii complex (ACB) strain, Pseudomonas aeruginosa ATCC27853 strain, and mcr-1-harboring Enterobacter aerogenes strain, and a colistin disk was placed thereon. Then, it was determined whether each strain was grown, and a diameter of a colistin inhibition zone, which had been formed clear around the disk, was measured. […]

[7] = tested on: KPN K4036_R; assay: Colistin disk diffusion, guanidine hydrochloride medium, K4036_R; type: cell-based, Klebsiella pnemoniae; details: 30% agar
Method: as §1

[8] = guanidine hydrochloride 5 μg/ml
[9] = guanidine hydrochloride 50 μg/ml
[10] = guanidine hydrochloride 500 μg/ml

Question: Which results are given for colistin?
Answer: Disk diffusion (mm) [1, 8]: 15 mm; Disk diffusion (mm) [1, 9]: 15 mm; Disk diffusion (mm) [1, 10]: 15 mm; Disk diffusion (mm) [2, 8]: 16 mm; Disk diffusion (mm) [2, 9]: 16 mm; Disk diffusion (mm) [2, 10]: 14 mm; Diameter (mm) of colistin inhibition zone ([3]; 30% agar): 16 mm; Diameter (mm) of colistin inhibition zone ([3]; 40% agar): 14 mm; Diameter (mm) of colistin inhibition zone ([3]; 50% agar): 14 mm; Diameter (mm) of colistin inhibition zone ([3]; 60% agar): 14 mm; Diameter (mm) of colistin inhibition zone ([3]; 70% agar): 14 mm; Diameter (mm) of colistin inhibition zone ([3]; 80% agar): 14 mm; Diameter (mm) of colistin inhibition zone ([3]; 90% agar): 13 mm; Diameter (mm) of colistin inhibition zone ([3]; 100% agar): 13 mm; Disk diffusion (mm) [4, 8]: 12 mm; Disk diffusion (mm) [4, 9]: 12 mm; Disk diffusion (mm) [4, 10]: 10 mm; Disk diffusion (mm) [5, 8]: 17 mm; Disk diffusion (mm) [5, 9]: 16 mm; Disk diffusion (mm) [5, 10]: 16 mm; size of a growth inhibition zone in the colistin-resistant strains ([6]; agar 5.1 g/L (30%) compared with 17 g/L, FIG. 1): maintained; size of the growth inhibition zone in the colistin-resistant strains ([6]; agar 5.1 g/L and protamine 100 μg/ml compared with agar 17 g/L, FIGS. 2A to 6B): no changes; Disk diffusion (mm) [7, 8]: 16 mm; Disk diffusion (mm) [7, 9]: 16 mm; Disk diffusion (mm) [7, 10]: 14 mm

— patent US20210222225A1, “Medium for Disk Diffusion Method to Evaluate Antibiotic Sensitivity” (priority 2018, published 2021)
